# US20230047816A1 (priority 2018, published 2023)
# “Also recorded” adds a separate entry of the source.
# Tests used:
# [1] = tested on: neurons transfected with PFK1-M; test: Excitotoxic insult in neurons overexpressing PFK1-M; assay type: cell-based, mouse; conditions: PFK1-M (muscle isoform) overexpression
# Experimental: To address whether the protection caused by PFKFB3 inhibitors was a consequence of hampering the glycolytic activation (FIG. 4B), we aimed to investigate whether the overexpression of the glycolytic enzyme, PFK1-muscle isoform, could revert PFKFB3 inhibitors-mediated neuroprotection. […] Accordingly, neurons were first transfected with the full-length cDNA encoding for PFK1-M, and then subjected to the excitotoxic insult. Cells were transfected with 1.6 μg/mL of a pIRES2-EGFP plasmid vector (Invitrogen) harbouring a full-length cDNA coding for the human muscle 6-phosphofructo-1-kinase muscle isoform (PFK1-M) (accession number, NM_000289.1) using Lipofectamine LTX-PLUS Reagent (Life Technologies) according with manufacturer's protocol. Transfections were performed 24 hours before cells collection. Control cells were transfected with the empty vector. Cells were treated with excitotoxic stimuli as described above.
# [2] = tested on: mouse primary cortical neurons; test: NADPH/NADP upon excitotoxic stimuli; assay type: cell-based; conditions: glutamate 100 μM 10 minutes, then inhibitor 0.01 μM 24 hours
# Experimental: Neurons were then washed and further incubated in culture medium with the PFKFB3 inhibitors for 24 hours. A colorimetric NADP/NADPH assay kit (Abcam) was used. Cells were resuspended in 500 μl of NADP/NADPH extraction buffer, vortexed and centrifuged at 14,000 rpm for 5 minutes to remove insoluble material. The supernatant was used for NADPH +plus NADP+ measurement. NADPH was determined in 200 μl of the supernatant, after […] 60° C. for 30 minutes to decompose NADP+. Actual NADP and NADPH+ concentrations were calculated by extrapolating values to a NADPH standard curve (0-100 pmol/well).
# [3] = tested on: Cln7Δex2 mice; test: AZ67 in vivo administration in Batten disease model; conditions: 1 nmol/mouse intracerebroventricularly every 24 h, two months
# Experimental: AZ67 for in vivo usage was dissolved in 20% (wt/vol) PEG200 in PBS to a 20 mM concentration. 4 groups were generated (4-6 animals/group), namely: WT-vehicle, CLN7Δex2-vehicle, WT-AZ67, CLN7Δex2-AZ67. The canula was inserted intracerebroventricularly at the age of 8 weeks and, after at least of 15 days of recovery, we injected the AZ67 at the dose identified previously (l nmol/mouse) every 24 h. The duration of the experiment was determined by the presence of hindlimb clasping the CLN7Δex2-control (vehicle), being this time two months. After this, the animals were perfused, and their brains dissected to be investigated by immunofluorescence and electron microscopy (EM).
# Mice (5 months for AZ67 intraventricular injections; 3 months for mCAT expression approach) were anaesthetized by intraperitoneal injection of a mixture of xylazine hydrochloride (Rompun; Bayer) and ketamine hydrochloride/chlorbutol (Imalgene; Merial) (1:4) at 1 ml per kg body weight and then perfused intra-aortically with 0.9% NaCl followed by 5 ml p/g body weight of Somogyi (4% (wt/vol) paraformaldehyde, and 0.2% (vol/vol) picric acid, in 0.1 M PB; pH 7.4). After perfusion, brains were dissected out sagitally in two parts and post-fixed with Somogyi for 2 h at room temperature. Brain blocks were rinsed successively for 10 min, 30 min and 2 h with 0.1 M PB solution and cryoprotected in 10%, 20% and 30% (wt/vol) sucrose in PB sequentially, until they sank. After cryoprotection, 40-m-thick sagittal sections were obtained with a freezing-sliding cryostat (Leica). Sectioning of WT and Cln7Δex2 brains were performed under the same conditions and sessions. The sections were collected serially in a 12-well plate in 0.1 M PB, rinsed three times for 10 min in 0.1 M PB and used for subsequent immunohistochemistry and lipofuscin observation. The section-containing wells that were not used were kept in freezer mix (30% (vol/vol) polyethylene glycol, 30% (vol/vol) glycerol in 0.1 M PB) at −20° C. […]
# Sections were examined with epifluorescence and the appropriate filter sets under an Operetta CLS high-content imaging system (PerkinElmer). […] Images were analysed with the Harmony software with PhenoLOGIC (PerkinElmer). Interest brain areas (cortex, hippocampus and cerebellum) were selected and subsequently quantified as mean intensity per area by using the ‘measure rectangle’ function, which represents the mean intensity of a channel per selected area.
# [4] = tested on: primary neurons; test: Mitochondrial ROS in NMDA and glutamate excitotoxic models; assay type: cell-based; conditions: 0.01 μM, triggered by NMDA and glutamate, FIG. 4B
# [5] = tested on: mouse primary cortical neurons; test: Apoptosis of neurons induced by NMDA and glutamate; assay type: cell-based
smiles,measurement,setting,value
"Cc1noc(C)c1Cn1cc(C#N)c2cc(Oc3ccc(NC(=O)[C@@H]4CCCN4)cc3)ccc21 [AZ67, (2S)-N-[4-({3-cyano-1-[(3,5-dimethyl-1,2-oxazol-4-yl)methyl]-1H-indol-5-yl}oxy)phenyl]pyrrolidine-2-carboxamide]",neuroprotection under PFK1-M overexpression,[1],abolish the neuroprotection; also recorded: abrogates the neuroprotective effect
same,NADPH oxidation / NADPH/NADP ratio,[2],prevented; also recorded: restore NADPH/NADP ratio
same,accumulation of SCMAS in the cortex,[3],prevented
same,accumulation of lipofuscin in the cortex,[3],prevented
same,accumulation of reactive astroglia in the cortex,[3],prevented
same,hindlimb paralysis,[3],prevented
same,increase in mitochondrial ROS,[4],significantly prevented
same,apoptotic neuronal death increased by glutamate and NMDA,[5]; FIG. 5,significantly prevented
same,neuroprotection under PFK1-M overexpression,"[5]; PFK1-M overexpression, FIGS. 6B and 6C",abolish the neuroprotection
same,protection of mouse primary cortical neurons from apoptosis,"[5]; apoptosis induced by NMDA and glutamate, FIG. 6A",protect
